Laboratory results reported in ChEMBL document CHEMBL1156089, “Anthranilic sulfonamide CCK1/CCK2 dual receptor antagonists I: discovery of CCKR1 selectivity in a previously CCKR2-selective lead series” (Bioorg Med Chem Lett, 2009).

Experiments:
[1] = molecular target: T1, Cholecystokinin receptor type A (Homo sapiens, UniProt P32238); test: Displacement of [125I]-CCK-8S from CCK1R after 100 mins by liquid scintillation counting
T1 sequence (P32238 whole entry): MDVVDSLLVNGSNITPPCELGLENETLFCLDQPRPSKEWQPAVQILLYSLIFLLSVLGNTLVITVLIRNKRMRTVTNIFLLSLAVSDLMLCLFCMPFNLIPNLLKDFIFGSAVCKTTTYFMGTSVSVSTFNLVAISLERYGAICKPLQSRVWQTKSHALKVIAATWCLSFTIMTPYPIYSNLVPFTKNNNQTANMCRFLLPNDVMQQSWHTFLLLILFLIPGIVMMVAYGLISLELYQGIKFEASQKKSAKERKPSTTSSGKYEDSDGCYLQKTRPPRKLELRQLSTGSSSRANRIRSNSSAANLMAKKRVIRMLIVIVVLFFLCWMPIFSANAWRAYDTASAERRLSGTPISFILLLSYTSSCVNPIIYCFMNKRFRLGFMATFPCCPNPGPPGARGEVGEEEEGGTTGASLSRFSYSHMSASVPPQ

[2] = molecular target: T2, Gastrin/cholecystokinin type B receptor (Homo sapiens, UniProt P32239); test: Displacement of [125I]-CCK-8S from CCK2R after 100 mins by liquid scintillation counting
T2 sequence (P32239 whole entry): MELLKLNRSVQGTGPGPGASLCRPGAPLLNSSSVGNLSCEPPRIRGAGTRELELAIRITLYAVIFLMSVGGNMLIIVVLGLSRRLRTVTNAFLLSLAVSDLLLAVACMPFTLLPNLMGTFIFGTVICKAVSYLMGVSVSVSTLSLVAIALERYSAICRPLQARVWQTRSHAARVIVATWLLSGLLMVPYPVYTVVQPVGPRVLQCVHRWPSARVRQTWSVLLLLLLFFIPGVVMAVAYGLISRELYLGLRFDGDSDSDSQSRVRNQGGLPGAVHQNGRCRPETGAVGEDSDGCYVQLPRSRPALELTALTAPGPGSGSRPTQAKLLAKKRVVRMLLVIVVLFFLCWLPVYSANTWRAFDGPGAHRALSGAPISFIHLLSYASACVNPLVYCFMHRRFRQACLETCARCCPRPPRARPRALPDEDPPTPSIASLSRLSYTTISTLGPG

Row | SMILES | Ki [1] | Ki [2]
1 | O=C(NCc1ccccc1)c1ccc(Cl)cc1NS(=O)(=O)c1cccc2nsnc12 | > 10 µM | –
2 | O=C(NCCc1ccccc1)c1ccc(Br)cc1NS(=O)(=O)c1cccc2nsnc12 | 0.398 µM | 0.631 µM
3 | O=C(N[C@@H](Cc1ccccc1)C(=O)O)c1ccc(Cl)cc1NS(=O)(=O)c1cccc2nsnc12 | 3.98 µM | 0.0794 µM
4 | O=C(NCCc1ccccc1)c1ccc(Cl)cc1NS(=O)(=O)c1cccc2nsnc12 | 0.158 µM | 6.31 µM
5 | O=C(N[C@H](Cc1ccccc1)C(=O)O)c1ccc(Cl)cc1NS(=O)(=O)c1cccc2nsnc12 | 3.16 µM | 0.158 µM
6 | O=C(NCCc1ccc(Cl)cc1)c1ccc(Cl)cc1NS(=O)(=O)c1cccc2nsnc12 | 1 µM | > 10 µM
7 | CN(CCc1ccccc1)C(=O)c1ccc(Cl)cc1NS(=O)(=O)c1cccc2nsnc12 | 3.98 µM | 0.316 µM
8 | O=C(NCCCc1ccccc1)c1ccc(Cl)cc1NS(=O)(=O)c1cccc2nsnc12 | 2 µM | 1 µM
9 | O=C(NCC(c1ccc(Cl)cc1)c1ccc(Cl)cc1)c1ccc(Cl)cc1NS(=O)(=O)c1cccc2nsnc12 | – | > 10 µM

The remaining lines, values ahead:

Row | Ki [1] | Ki [2] | SMILES
10 | > 10 µM | – | O=C(N[C@H](C(=O)O)C(c1ccc(Cl)cc1)c1ccc(Cl)cc1)c1ccc(Cl)cc1NS(=O)(=O)c1cccc2nsnc12
11 | 0.316 µM | 0.631 µM | O=C(N[C@H](Cc1ccc(Cl)cc1)C(=O)O)c1ccc(Cl)cc1NS(=O)(=O)c1cccc2nsnc12
12 | 0.2 µM | 1.58 µM | C[C@H](c1ccc(Cl)c(Cl)c1)[C@@H](NC(=O)c1ccc(Cl)cc1NS(=O)(=O)c1cccc2nsnc12)C(=O)O
13 | 0.0794 µM | 7.94 µM | O=C(NCCc1ccc(Cl)c(Cl)c1)c1ccc(Cl)cc1NS(=O)(=O)c1cccc2nsnc12
14 | – | 1 µM | CC(C)(c1ccc(Cl)cc1)[C@H](NC(=O)c1ccc(Cl)cc1NS(=O)(=O)c1cccc2nsnc12)C(=O)O
15 | 2 µM | 0.0631 µM | O=C(N[C@@H](Cc1ccc(Cl)cc1)C(=O)O)c1ccc(Cl)cc1NS(=O)(=O)c1cccc2nsnc12
16 | 0.1 µM | – | CC(CNC(=O)c1ccc(Cl)cc1NS(=O)(=O)c1cccc2nsnc12)c1ccc(Cl)cc1 (racemic)
